From ChEMBL document CHEMBL3580627, “Dibenzazepines and dibenzoxazepines as sodium channel blockers” (Bioorg Med Chem Lett, 2014) come the findings set out here.

Data set [1] is described as follows: Kinetic solubility of the compound at pH 1.2. Type of data set: physicochemical. Conditions: buffer, read-out: Kinetic_solubility.
Data set [2] is described as follows: Kinetic solubility of the compound at pH 6.8. Type of data set: physicochemical. The following applies: buffer, read-out: Kinetic_solubility.
Data set [3] is described as follows: in vitro. The following applies: rat, liver microsomes. On the technique in general: Microsomes from liver hold many membrane-bound enzymes, among them those of drug oxidation.
Description: Metabolic stability in rat liver microsomes assessed as compound remaining at 1 uM after 30 mins
The nature of data set [4]: in vitro. The following applies: human, liver microsomes.
Description: Metabolic stability in human liver microsomes assessed as compound remaining at 1 uM after 30 mins
For data set [5], the target named is T1, Sodium channel protein type 9 subunit alpha (Homo sapiens, UniProt Q15858). In words: Inhibition of Nav1.7 (unknown origin) by electrophysiological assay.
T1 sequence (Q15858 whole entry): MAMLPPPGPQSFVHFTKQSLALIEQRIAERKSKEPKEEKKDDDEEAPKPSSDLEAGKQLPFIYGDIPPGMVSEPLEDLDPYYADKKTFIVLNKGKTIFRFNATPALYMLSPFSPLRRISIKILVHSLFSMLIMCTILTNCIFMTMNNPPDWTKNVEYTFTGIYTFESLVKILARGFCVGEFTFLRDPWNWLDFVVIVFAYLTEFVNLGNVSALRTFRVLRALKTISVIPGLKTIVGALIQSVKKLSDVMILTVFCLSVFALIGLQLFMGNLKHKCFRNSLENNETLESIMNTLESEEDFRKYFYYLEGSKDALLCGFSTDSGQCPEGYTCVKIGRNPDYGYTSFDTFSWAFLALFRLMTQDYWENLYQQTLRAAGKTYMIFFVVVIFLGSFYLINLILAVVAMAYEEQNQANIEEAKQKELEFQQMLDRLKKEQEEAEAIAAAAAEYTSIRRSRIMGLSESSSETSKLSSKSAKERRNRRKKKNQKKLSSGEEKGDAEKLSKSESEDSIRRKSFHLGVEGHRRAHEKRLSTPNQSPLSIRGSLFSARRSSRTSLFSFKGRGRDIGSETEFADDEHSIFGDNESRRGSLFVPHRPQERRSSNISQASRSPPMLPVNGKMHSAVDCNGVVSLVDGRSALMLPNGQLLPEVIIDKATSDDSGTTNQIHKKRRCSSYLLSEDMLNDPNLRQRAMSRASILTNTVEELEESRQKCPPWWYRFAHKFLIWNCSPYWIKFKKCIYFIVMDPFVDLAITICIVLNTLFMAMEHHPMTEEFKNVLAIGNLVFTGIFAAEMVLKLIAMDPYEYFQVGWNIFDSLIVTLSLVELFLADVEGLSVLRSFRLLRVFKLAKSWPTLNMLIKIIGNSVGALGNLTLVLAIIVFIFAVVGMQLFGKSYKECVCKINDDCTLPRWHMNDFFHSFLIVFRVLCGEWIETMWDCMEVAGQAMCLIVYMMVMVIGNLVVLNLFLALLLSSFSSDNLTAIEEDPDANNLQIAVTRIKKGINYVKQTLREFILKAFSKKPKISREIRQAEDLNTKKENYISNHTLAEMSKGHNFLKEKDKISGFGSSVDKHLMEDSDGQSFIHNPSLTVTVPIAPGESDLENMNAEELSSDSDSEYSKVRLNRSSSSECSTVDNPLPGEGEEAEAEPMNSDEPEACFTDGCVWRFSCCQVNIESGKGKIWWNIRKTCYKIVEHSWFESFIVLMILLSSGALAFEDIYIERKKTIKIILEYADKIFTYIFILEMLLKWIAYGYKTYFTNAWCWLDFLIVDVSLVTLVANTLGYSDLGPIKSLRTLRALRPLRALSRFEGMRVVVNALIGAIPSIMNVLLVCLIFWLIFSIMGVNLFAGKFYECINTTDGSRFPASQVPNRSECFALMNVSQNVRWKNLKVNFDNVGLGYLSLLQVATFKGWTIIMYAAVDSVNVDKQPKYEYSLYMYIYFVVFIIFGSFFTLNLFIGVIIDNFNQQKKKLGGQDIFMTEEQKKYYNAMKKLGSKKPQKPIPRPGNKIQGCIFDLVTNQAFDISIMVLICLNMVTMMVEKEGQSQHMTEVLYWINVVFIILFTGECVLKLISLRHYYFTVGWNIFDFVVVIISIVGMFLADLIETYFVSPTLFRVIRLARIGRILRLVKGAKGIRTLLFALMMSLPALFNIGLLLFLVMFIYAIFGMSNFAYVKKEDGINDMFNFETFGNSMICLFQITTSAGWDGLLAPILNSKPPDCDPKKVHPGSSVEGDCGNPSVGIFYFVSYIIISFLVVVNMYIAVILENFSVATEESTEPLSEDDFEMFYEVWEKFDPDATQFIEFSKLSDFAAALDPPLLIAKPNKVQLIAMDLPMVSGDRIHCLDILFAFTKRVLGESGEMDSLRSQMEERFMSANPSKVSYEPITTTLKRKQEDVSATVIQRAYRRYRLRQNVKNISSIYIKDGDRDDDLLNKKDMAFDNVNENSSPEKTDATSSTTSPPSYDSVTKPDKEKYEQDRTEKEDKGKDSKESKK
Data set [6] deals with T1, Sodium channel protein type 9 subunit alpha. In words: Inhibition of Nav1.7 (unknown origin) expressed in CHO cells after 45 mins by FLIPR assay. It is filed as cell-based.

Values after ≈ are worked out from the molar mass of the structure shown.

The term fraction remaining denotes the share of the starting amount still present when the sample was taken. A low value points to more turnover. As to `CN1c2ccc(-c3cccc([C@H](O)CO)n3)cc2CCc2cc(C(F)(F)F)ccc21`, the solubility kinetic was 60 µM (≈ 24.9 µg/mL) in data set [1] and 0.1 µM (≈ 0.0414 µg/mL) in data set [2]. Also, the fraction remaining at 0.5 h, 1 µM in the data set “in vitro [3]” is 72%; in the data set “in vitro [4]”, 79%.

In general, Ki refers to the equilibrium dissociation constant of an inhibitor or competing ligand from its target. Low values mean tighter binding, high ones weaker binding. With `CN1Cc2cc(-c3cccc([C@H](O)CO)n3)ccc2Oc2ccc(C(F)(F)F)cc21`, in data set [5], the inhibitory constant (Ki) came to 440 nM. Further, the values for the solubility kinetic in data set [1] and in data set [2] were 70 µM (≈ 29.1 µg/mL) and 0.4 µM (≈ 0.167 µg/mL), respectively. The share remaining at 0.5 h, 1 µM came to 94% in the data set “in vitro [3]” and 98% in the data set “in vitro [4]”.

With `NC(=O)N1c2ccccc2C=Cc2ccccc21` [CARBAMAZEPINE], the solubility kinetic in data set [1] is 75 µM (≈ 17.7 µg/mL); in data set [2], 74 µM (≈ 17.5 µg/mL). Further, the values for the fraction remaining at 0.5 h, 1 µM in “in vitro [3]” and in “in vitro [4]” were 37% and 38%, respectively.

For the molecule `CN1Cc2cc(C(F)(F)F)ccc2Oc2ccc(-c3cccc([C@H](O)CO)n3)cc21`, the Ki in data set [5] came out at 560 nM. The solubility kinetic in data set [1] turned out to be 73 µM (≈ 30.4 µg/mL); in data set [2] it was 6 µM (≈ 2.5 µg/mL). Also, the share remaining at 0.5 h, 1 µM in the data set “in vitro [3]” stood at 74%; in the data set “in vitro [4]”, 91%.

A word on the IC50: it is the point on the concentration scale where inhibition reaches its midpoint. Take `CCN1c2ccc(Cl)cc2CCc2cc(-c3cccc(C(N)=O)n3)ccc21`: the solubility kinetic in data set [1] was 0.2 µM (≈ 0.0756 µg/mL). The molecule also had an IC50 in data set [6] greater than 10000 nM.

With `CN1Cc2cc(-c3cccc([C@H](O)[C@@H](O)C(N)=O)n3)ccc2Oc2ccc(C(F)(F)F)cc21`, in data set [5], the inhibitory constant (Ki) stood at 920 nM. Besides, the solubility kinetic is 70 µM (≈ 32.2 µg/mL) in data set [1] and 0.8 µM (≈ 0.368 µg/mL) in data set [2]. Moreover, the amount remaining at 0.5 h, 1 µM was found to be 93% in “in vitro [3]” and 94% in the data set “in vitro [4]”.

As to `NC(=O)CN1Cc2cc(-c3cccc([C@H](O)CO)n3)ccc2Oc2ccc(C(F)(F)F)cc21`, the solubility kinetic was determined as 80 µM (≈ 36.8 µg/mL) in data set [1] and 1 µM (≈ 0.459 µg/mL) in data set [2]. This molecule also yielded an IC50 in data set [6] of 1800 nM. The values for the share remaining at 0.5 h, 1 µM in the data set “in vitro [3]” and in “in vitro [4]” were 91% and 83%, respectively.

As for `NC(=O)c1cccc(-c2ccc3c(c2)CCc2cc(Cl)ccc2N3)n1`, in data set [1], the solubility kinetic turned out to be 0.2 µM (≈ 0.07 µg/mL).

As for `CC(=O)N1c2ccc(Cl)cc2CCc2cc(-c3cccc(C(N)=O)n3)ccc21`, the values for the solubility kinetic in data set [1] and in data set [2] were 12 µM (≈ 4.7 µg/mL) and 7 µM (≈ 2.74 µg/mL), respectively.

`OC[C@@H](O)c1cccc(-c2ccc3c(c2)CNc2cc(C(F)(F)F)ccc2O3)n1`: the solubility kinetic was 80 µM (≈ 32.2 µg/mL) in data set [1] and 12 µM (≈ 4.83 µg/mL) in data set [2].
